In patent US20040052750A1, “Compositions for prevention and alleviation of skin wrinkles” (priority 2000, published 2004):

Experiments:
rat skin = assay: Promotion of collagen production in rat skin (hydroxyproline in implanted PVA sponge); assay type: in vivo, SD rats; details: 200 μl every day for 10 days, control = 100%
Experimental: In brief, 5-week male SD rats were grouped with 5 rats per group. The rats were each incised 1 cm in the center of their abdomens and PVA sponges (Unipoint ind.) were inserted therein. After suturing, as for experimental groups, respective active ingredients to be examined were applied to the PVA sponge-embeded regions i n a volume o f 200 μl every day for 10 days. Upon autopsy, the PVA sponge was removed to quantify hydroxyproline. The PVA sponge was added with 4 ml of 6 N HCl, hydrolized at 130° C. for 3 hours and was subjected to complete drying. 50 μl of methanol was added and the solution was incubated at 110° C. until HCl was removed. 1.2 ml of 50% isopropanol was added to dissolve the remaining precipitate. 200 μl of chloramine-T (sodium p-toluensulfochloramide trihydrate) solution was added while stirring, and let stand for 10 min. After adding 1.2 ml of Ehrlich reagent and mixing, the solution was incubated at 50° C. for 90 min. The resulting solution was cooled to room temperature and absorbance at 558 nm was measured. Hydroxyproline standard solutions were prepared by dissolving 1 mg hydroxyproline in 1 ml HCl and diluting it to concentrations of 0, 0.2, 0.4, 0.8, 1 mg each relative to 25 μl of 6 N HCl. The standard solutions were hydrolyzed at 130° C. for 3 hours. The quantified value of hydroxyproline, relative to hydroxyproline value (100%) of the control group which was applied with solvent only, are shown in Table 2.

hairless mice [1] = assay: Alleviating photo-induced wrinkles in hairless mice; assay type: in vivo; details: twice a day for 6 weeks, 10 per group
Experimental: Mice were placed into 21 experimental groups and 3 control groups, with 10 rats per group. […] The experimental protocol is as follows. Hairless mice were radiated using a simulated sunlight at a dose of 2 MED (double Minimal Erythema Dose) 3 days a week for 10 weeks, thereby generating wrinkles. Then, respective active ingredients or the solvent only were applied at a volume of 100 μl each, twice a day for 6 weeks. Degrees of wrinkle reduction were determined. The determination was performed by visually observing the compound-applied region with naked eyes, and the region was photographed. The degrees of alleviation of wrinkles in the compound-treatment groups (experimental groups) were compared with those of the control group and were determined as one of 4 stages, that is, none (Score 0), slight (Score 1), moderate (Score 2) and high (Score 3), and the corresponding mice were counted.

[2] = tested on: fibroblasts derived from a human; assay: Promoting collagen production in fibroblasts (3H-proline incorporation into collagenase-sensitive protein); assay type: cell-based; details: control = 100%
Experimental: The experimental protocol in detail is as follows.
Human-derived fibroblasts were transferred to a 24 well plate and cultured in a medium containing 10% fetal bovine serum (FBS) for 24 hours, followed by washing twice with phosphate buffered saline. […] After the incubation was terminated, cells from each group were harvested and two fractions of each culture were prepared. One fraction from each culture was treated with collagenase. To all fractions was added trichloroacetic acid to precipitate proteins. The amount of radioactivity incorporated into collagenase-sensitive protein was measured and compared with that of the other fraction which was not treated with collagenase. The difference in radioactivity was attributed to the promoting effect of the compound.

hairless mice [3] = assay: Inhibiting the generation of wrinkles in hairless mice (simulated sunlight); assay type: in vivo; details: 10 per group
Experimental: 6-week hairless mice were placed into 21 experimental groups and 3 control groups, with 10 rats per group. […] The experimental protocol in detail is as follows. Hairless mice were radiated using simulated sunlight at a dose of 2 MED (double Minimal Erythema Dose) 3 days a week for […], thereby generating wrinkles. Respective active ingredients or the solvent only were applied twice every day (specifically, on radiation days, the application was performed at 30 min before and after the radiation), at a volume of 100 μl each for 10 weeks from the first radiation day. Degrees of inhibition of generated wrinkles were determined. The determination was performed by visual observation with naked eyes and photography.

| SMILES | Effect of promoting collagen production in animal skin (hydroxyproline value vs control) (rat skin; 10^-5 M) | Effect of promoting collagen production in animal skin (hydroxyproline value vs control) (rat skin; 10^-6 M) | Effect of promoting collagen production in animal skin (hydroxyproline value vs control) (rat skin; 10^-7 M) | Effect of promoting collagen production in animal skin (hydroxyproline value vs control) (rat skin; 10^-8 M) | Reduction of wrinkles, Score 0 (none) (hairless mice [1]; 10^-3 M) | Reduction of wrinkles, Score 1 (slight) (hairless mice [1]; 10^-3 M) | Reduction of wrinkles, Score 2 (moderate) (hairless mice [1]; 10^-3 M) | Reduction of wrinkles, Score 3 (high) (hairless mice [1]; 10^-3 M) | Reduction of wrinkles, Score 0 (none) (hairless mice [1]; 10^-5 M) | Reduction of wrinkles, Score 1 (slight) (hairless mice [1]; 10^-5 M) | Reduction of wrinkles, Score 2 (moderate) (hairless mice [1]; 10^-5 M) | Reduction of wrinkles, Score 3 (high) (hairless mice [1]; 10^-5 M) | Reduction of wrinkles, Score 0 (none) (hairless mice [1]; 10^-8 M) | Reduction of wrinkles, Score 1 (slight) (hairless mice [1]; 10^-8 M) | Reduction of wrinkles, Score 2 (moderate) (hairless mice [1]; 10^-8 M) | Reduction of wrinkles, Score 3 (high) (hairless mice [1]; 10^-8 M) | Effect of promoting collagen production in fibroblasts (rate of collagen production) ([2]; 10^-5 M) | Effect of promoting collagen production in fibroblasts (rate of collagen production) ([2]; 10^-6 M) | Effect of promoting collagen production in fibroblasts (rate of collagen production) ([2]; 10^-7 M) | Effect of promoting collagen production in fibroblasts (rate of collagen production) ([2]; 10^-8 M) | also measured |
| --- | --- | --- | --- | --- | --- | --- | --- | --- | --- | --- | --- | --- | --- | --- | --- | --- | --- | --- | --- | --- | --- |
| CCOC(=O)C1=C(COCCN)NC(C)=C(C(=O)OC)C1c1ccccc1Cl (stereo not shown) [Amoldipine] | 181.12% | 163.84% | 149.65% | 132.50% | 0 number of mice | 1 number of mice | 3 number of mice | 6 number of mice | 0 number of mice | 2 number of mice | 2 number of mice | 6 number of mice | 0 number of mice | 1 number of mice | 1 number of mice | 8 number of mice | 355.26% | 330.42% | 280.07% | 182.42% | Inhibition of wrinkles, Score 0 (none) (hairless mice [3]; 10^-3 M): 0 number of mice; Inhibition of wrinkles, Score 1 (slight) (hairless mice [3]; 10^-3 M): 0 number of mice; Inhibition of wrinkles, Score 2 (moderate) (hairless mice [3]; 10^-3 M): 2 number of mice; Inhibition of wrinkles, Score 3 (high) (hairless mice [3]; 10^-3 M): 8 number of mice; Inhibition of wrinkles, Score 0 (none) (hairless mice [3]; 10^-5 M): 0 number of mice; Inhibition of wrinkles, Score 1 (slight) (hairless mice [3]; 10^-5 M): 1 number of mice; Inhibition of wrinkles, Score 2 (moderate) (hairless mice [3]; 10^-5 M): 3 number of mice; Inhibition of wrinkles, Score 3 (high) (hairless mice [3]; 10^-5 M): 6 number of mice; Inhibition of wrinkles, Score 0 (none) (hairless mice [3]; 10^-8 M): 0 number of mice; Inhibition of wrinkles, Score 1 (slight) (hairless mice [3]; 10^-8 M): 1 number of mice; Inhibition of wrinkles, Score 2 (moderate) (hairless mice [3]; 10^-8 M): 1 number of mice; Inhibition of wrinkles, Score 3 (high) (hairless mice [3]; 10^-8 M): 8 number of mice |
| COc1ccc([C@@H]2Sc3ccccc3N(CCN(C)C)C(=O)[C@@H]2OC(C)=O)cc1 [Diltiazem] | 175.23% | 157.45% | 136.76% | 122.44% | 0 number of mice | 0 number of mice | 2 number of mice | 8 number of mice | 0 number of mice | 1 number of mice | 2 number of mice | 7 number of mice | 0 number of mice | 1 number of mice | 2 number of mice | 7 number of mice | 362.12% | 321.23% | 276.25% | 199.15% | Inhibition of wrinkles, Score 0 (none) (hairless mice [3]; 10^-3 M): 0 number of mice; Inhibition of wrinkles, Score 1 (slight) (hairless mice [3]; 10^-3 M): 1 number of mice; Inhibition of wrinkles, Score 2 (moderate) (hairless mice [3]; 10^-3 M): 2 number of mice; Inhibition of wrinkles, Score 3 (high) (hairless mice [3]; 10^-3 M): 7 number of mice; Inhibition of wrinkles, Score 0 (none) (hairless mice [3]; 10^-5 M): 0 number of mice; Inhibition of wrinkles, Score 1 (slight) (hairless mice [3]; 10^-5 M): 2 number of mice; Inhibition of wrinkles, Score 2 (moderate) (hairless mice [3]; 10^-5 M): 2 number of mice; Inhibition of wrinkles, Score 3 (high) (hairless mice [3]; 10^-5 M): 6 number of mice; Inhibition of wrinkles, Score 0 (none) (hairless mice [3]; 10^-8 M): 0 number of mice; Inhibition of wrinkles, Score 1 (slight) (hairless mice [3]; 10^-8 M): 2 number of mice; Inhibition of wrinkles, Score 2 (moderate) (hairless mice [3]; 10^-8 M): 2 number of mice; Inhibition of wrinkles, Score 3 (high) (hairless mice [3]; 10^-8 M): 6 number of mice |
